Source: patent US20130274834A1, “Method for the treatment of skin tissues” (priority 2006, published 2013)
Where “and” joins values, the source holds several entries; their conditions need not be identical. Identical values can stand only once. Entries after “also recorded” stand apart in the source; their conditions may differ.

How the values were obtained:
Type in all cases: in vivo, human
[1] = test system: facial papulo-pustular inflammatory acne lesions; assay: Split-face radiant IR skin preparation prior to PDT for inflammatory type acne of the face (Example 6); conditions: untreated side (no IR); one month later
Protocol: A person was treated for facial papulo-pustular inflammatory acne lesions. After performing an acetone scrub on the treatment area, a radiant IR skin preparation was done on the right side of their face (970 nm, 80 mW/cm2, for 30 min). Then 5-aminolevulinic acid (Levulan™ Kerastick™) was applied to the skin and left for 90 min incubation time. […] Radiant IR skin preparation allows for a reduction in the number of PDT treatments necessary for significant clinical improvements.

cystic acne lesions = assay: Split face or split back pre-PDT radiant IR study, eleven cystic acne patients (Example 7); conditions: one month after PDT; IR 970 nm 50 mW/cm2 15 min prior to 5-ALA; most patients
Protocol: Study Design/Materials and Methods: Eleven (11) patients were enrolled in a split face or split back (pre-treated side versus control) study with a pre-approved IRB protocol. […] Lesion count was assessed both manually and by digital photography before and 4 weeks after one PDT procedure. Prior to the application of 5-ALA, one side of the face or back was pre-treated with radiant IR [CW LEDs emitting @ λ970 nm, irradiance 50 mW/cm2 for 15 minutes, total fluence 45 J/cm2], while the other half was used as control. PDT was then performed on the entire surface (face or back).

[2] = test system: inflammatory acne lesions; assay: Randomized, controlled, rater-blinded split face/back trial of IR pre-treatment plus ALA-PDT in inflammatory acne (Example 9); design: key to Clinical Global Severity Assessment at Week-4, Median: 0: Clear; 1: Almost clear; 2: Mild; 3: Moderate; 4: Severe; 5: Very Severe; conditions: for Clinical Global Severity Assessment at Week-4, Median: six-point rating scale, grade 0-5; for Change from Baseline in Lesion Counts, Total Inflammatory lesions, Median (reduction): week-4 (one month after PDT)
Protocol: One side was pre-treated for 15 minutes with radiant IR light emitting diode (LED) (970 nm), while the other side was used as control. ALA was then applied after which PDT LED (630 nm) was performed on the entire face or back surface. Blinded lesion counts and clinical global assessment of severity were performed based on digital photographs before and four weeks after the PDT procedure.
Inclusion criteria included patients with skin type I to III according to the Fitzpatrick Classification System [^xxviii]. Exclusion criteria comprised patients taking cortisone (Prednisone), anticoagulant therapy, or any drug known to increase photosensitivity. In addition, during the 12 months preceding the study, patients were required not to have used isotretinoin (Accutane), or applied topical steroids on the site to be treated. Moreover, oral antibiotics use, laser or topical anti-acne medication at the to-be-treated site were not permitted for eight weeks prior to the study. Patients gave written informed consent to participate in this trial in compliance with the US Code of Federal Regulations dealing with the conduct of clinical studies (21 CFR including parts 50 and 56 concerning informed consent and IRB regulations). The study was conducted according to Good Clinical Practice Guidelines and the principles of the Declaration of Helsinki, and was approved by the Institutional Review Board Services (Div. 1373737 Toronto, Canada).
Patients were assigned to a split face or split back group to allow for within-patient assessments of clinical effects. Assignment was based on the patient's problem area. One side was randomly (using a coin flip) assigned to receive IR pre-treatment and ALA-PDT, and the other ALA-PDT alone to serve as control. The IR pre-treatment consisted of a 15 minute exposure to radiant IR LED at 970 nm ([…] using the LumiPhase-R/IR™, OPUSMED Inc. Montreal, Canada) to reach peak H2O absorption inside-out temperature of 45° C. Papillary dermis temperature was monitored with a needle probe throughout the session and up to 40 minutes (Type-T thermocouple, Omega, Montreal, Canada). ALA (20% Levulan Kerastick, DUSA Pharmaceuticals, USA) was then applied on both sides for 60 minutes, after which PDT with LED at 630 nm (50 mW/cm^2, 70 J/cm^2) was performed on the entire face or back surface for a duration of 23 minutes (LumiPhase-R/B™, OPUSMED Inc. Montreal, Canada). No cooling method was used. Digital photographs (Canon Dual Flash EOS 10D, Canon, Tokyo, Japan with EX SIGMA 50 mm 1:2.8 macro lens, Sigma, Aizu, Japan) were taken prior to and four weeks after the procedure. Each photograph was taken maintaining identical ambient lighting, pose and camera angles.
Acne lesion counts were performed before and four weeks after the PDT treatment. All types of inflammatory (papules, pustules, nodules) and noninflammatory (open and closed comedones) acne lesions were counted. Lesion counts were performed based on the digital photographs by two non-treating physicians who were blinded to the treatment regimen (IR-treated or control side) and to the timing of the photographs (baseline or post-treatment).
The global severity of acne was assessed at the end of the study by the […] non-treating physicians, as described above, using a six-point rating scale (Table 1). Clinical success was defined by grades 0 (clear) or 1 (almost clear).
Adverse reactions were monitored throughout the study. Signs of erythema, oedema, scaling/crusting, bronzing, textural changes, hyperpigmentation, and hypopigmentation were documented during the time period of the clinical trial.
Cronbach's alpha was calculated to assess inter-rater reliability in assessments. Reliability was deemed acceptable if Cronbach alpha was ≧7 allowing raters' assessments to be combined for analysis. The primary outcome variable was the percent change from baseline in inflammatory lesion count measured four weeks post-treatment. […]

What does the source list for `NCC(=O)CCC(=O)O` [5-aminolevulinic acid]?
PDT sessions needed for similar results [1]: needed an additional PDT session; number of cystic lesions, pre-treated versus control side (cystic acne lesions): statistically significant decrease; tolerability of the treatment ([2]; ALA-PDT with LED 630 nm, with or without IR pre-treatment, listed as ALA): overall well tolerated; also recorded: well tolerated with no significant adverse events; treatment-related adverse effects ([2]; ALA-PDT with or without IR pre-treatment): No unusual treatment-related adverse effects were observed; Clinical Global Severity Assessment at Week-4, Median ([2]; Control side (ALA-PDT alone)): 2; Change from Baseline in Lesion Counts, Total Inflammatory lesions, Median (reduction) ([2]; Control side (ALA-PDT alone), listed as ALA): 38% and 37.86%; Clinical Global Severity Assessment at Week-4, Median ([2]; IR-Treated side): 1; Change from Baseline in Lesion Counts, Total Inflammatory lesions, Median (reduction) ([2]; IR-Treated side, listed as ALA): 73% and 73.21%; additional benefit of IR-treated side in reduction of inflammatory lesion count ([2]; IR-treated versus control side, week-4): 35%; time to disappearance of slight erythema post-PDT ([2]; most patients): ≤ 48 h
